From ChEMBL document CHEMBL1127776, “Stereospecific synthesis of a pentopyranosyl analogue of d4T monophosphate” (Bioorg Med Chem Lett, 1994)
Calls of active or inactive are those of the source.

Columns and labels:
Type in all cases: functional, cell-based
Settings in all cases: Homo sapiens
CCRF-CEM [1] = test: Compound was tested for toxicity to the CEM cell monolayers; No toxicity
CCRF-CEM [2] = test: Compound was tested for the inhibition of HIV-1 replication in CEM cell culture up to 100 ug/mL concentration; Not active
CCRF-CEM [3] = test: Compound was tested for the inhibition of HIV-2 replication in CEM cell culture up to 100 ug/mL concentration; Not active

Cc1cn(C2C=CC(OCP(=O)(O)O)CO2)c(=O)[nH]c1=O (stereo not drawn)
inactive: Toxicity (CCRF-CEM [1]) Not toxic | inhibition (CCRF-CEM [2]) | inhibition (CCRF-CEM [3])
